Laboratory results taken from patent publication US9814709B2, “Bruton's tyrosine kinase inhibitor” (HEFEI INSTITUTES OF PHYSICAL SCIENCE, CHINESE ACADEMY OF …, priority 2014, dated 2017).

Tests used:
[1] = system: PLCγ2Y1217 phosphorylation; assay: Phosphorylation of PLCγ2 Y1217 in anti-IgM stimulated Ramos cells; type: cell-based; conditions: Homo sapiens, 4 hrs treatment, anti-IgM 10 min, read-out: EC50, inhibition of phosphorylation of PLCγ2Y1217
Experimental: (§1) We further characterized the properties of the compounds by assaying a number of cellular biochemical and functional endpoints. In particular, we assessed the selectivity of Compound 1 for inhibition of Btk versus the closely related protein kinases S6K, AKT, ErK, JAK3, and STAT5. Ramos cells (human B cells, purchased from ATCC) were treated with different concentrations of 10 nM, 100 nM, 1000 nM of the compounds of formula (I) for 4 hrs, followed by stimulation with anti-IgM for 10 min, and then the samples were harvested. We determined the effect of compounds on phosphorylation of BTKY223, PLCγ1Y783, PLCγ2Y759, PLCγ2Y1217, AKTT308, Erk1/2T202/204, JAK3 T980/981, STAT5 T694, mTORC1T389, MNK2 (FIG. 1).

tyrosine Y223 on Btk = biological target: T1, tyrosine Y223 on Btk (Homo sapiens, UniProt Q06187); assay: Phosphorylation of BTK Y223 in anti-IgM stimulated Ramos cells; type: cell-based; conditions: 4 hrs treatment, anti-IgM 10 min, read-out: EC50, inhibition of phosphorylation of tyrosine Y223 on Btk
T1 construct: host or cells: Ramos cells
Experimental: as §1

BTK [2] = biological target: T2, BTK (Homo sapiens, UniProt Q06187); assay: Phosphorylation of BTK in IL2-stimulated PBMC, Western Blot; type: cell-based; parameters: endogenous in cells; host or cells: human peripheral blood mononuclear cells (PBMC); conditions: 3.5 hours, then 20 ng/mL IL2 30 min
Experimental: In order to test the effect of Compound 1 on human cells, a peripheral blood mononuclear cell (PBMC) culture system with BTK signal being activated by in vitro stimulation was introduced. The phenomena occurred in the clinical patients were simulated by stimulating PBMC of a normal human with IL2 to activate the BTK signal. PBMC cells were seeded in 6-well plate and Compound 1 of different concentrations (0, 0.01, 0.1, 1 μM), 1 μM of PCI-32765 and 1 μM of Compound 19 were added; 3.5 hours later after the administration, the samples were stimulated with 20 ng/ML IL2 for 30 min and then were collected. Western Blot assay was performed. […] The negative control Compound 19 had no effect on the phosphorylation of BTK.

EGFR (T790M) = biological target: T3, EGFR (T790M) (Homo sapiens, UniProt P00533, T790M); assay: In vitro enzymatic activity (ADP-Glo); type: biochemical; conditions: 4 hrs preincubation, 10 μM ATP
T3 construct: The intracellular segment (699-1068) region of EGFR was cloned into the insect expression vector pAcG2T; GST; made in house; host or cells: SF9 insect cells (baculovirus)
Experimental: (§2) In the experimental assay of in vitro enzymatic activity, the IC50 values of Compound 1 and Compound 19 on different kinases including BTK, EGFR (WT), EGFR/T790M, EGFR L858R/T790M, JAK1, JAK2, and JAK3 were determined. The intracellular segment (699-1068) region of EGFR was cloned into the insect expression vector pAcG2T, and was protein expressed by using an insect expression system, BaculoGold™ Baculovirus Expression System (BD Pharmingen), with GST tag. The mutations of T790M and L858R sites were performed simultaneously to give T790M single mutant vector and T790M/L858R double mutant vector of EGFR, respectively. The established vectors were transfected into SF9 packaging viruses, so as to infect the SF9-expressed proteins with the viruses; JAK1 and JAK2 were purchased from Life Technologies (US) and Abcam (US), respectively; JAK3 and BTK were purchased from Progema (US).
(§3) BTK protein kinase 9 μL (concentration of 1.5 ng/μL), JAK1, JAK2, JAK3 protein kinases 9 μL (concentration of 3 ng/μL, 3 ng/μL, 1.5 ng/μL), purified EGFR (WT), EGFR (T790M), EGFR (T790M/L858R) protein kinases 9 μL (all with concentration of 6 ng/μL) were respectively used, and each was reacted with three-fold gradient dilution of pharmaceutical Compound 1 and Compound 19 (final concentrations of the agents were 10 μM, 3 μM, 1 μM, 0.3 μM, 0.1 μM, 0.03 μM, 0.01 μM, 0.003 μM), respectively, at room temperature for 4 hrs;
(§4) 2 μL of ATP and 3 μL of substrate, Poly(4:1 Glu, Tyr)Peptide (Promega, US), were added (final concentrations are 10 μM and 0.2 μg/μL, respectively), and reacted at 37° C. for 1 hr;
(§5) 5 μL of reacted kinase solution was added into 5 μL of ADP-Glo™ (Promega, US) and reacted at room temperature for 40 min, the kinase reaction was stopped and the remained ATP was consumed;
(§6) 10 μL of kinase detection reagent was added to transfer ADP into ATP, and the newly obtained ATP was detected by using coupled luciferase/fluorescein reaction, then the IC50 values were calculated by using a plotting method based on the Envision reading.

EGFR (T790M/L858R) = biological target: T4, EGFR (T790M/L858R) (Homo sapiens, UniProt P00533, L858R/T790M); assay: In vitro enzymatic activity (ADP-Glo); type: biochemical; conditions: 4 hrs preincubation, 10 μM ATP
T4 construct: The intracellular segment (699-1068) region of EGFR was cloned into the insect expression vector pAcG2T; GST; made in house; host or cells: SF9 insect cells (baculovirus)
Experimental: as §2, §3, §4, §5, §6

EGFR (WT) = biological target: T5, EGFR (WT) (Homo sapiens, UniProt P00533); assay: In vitro enzymatic activity (ADP-Glo); type: biochemical; conditions: 4 hrs preincubation, 10 μM ATP
T5 construct: The intracellular segment (699-1068) region of EGFR was cloned into the insect expression vector pAcG2T; GST; made in house; host or cells: SF9 insect cells (baculovirus)
Experimental: as §2, §3, §4, §5, §6

JAK3 = biological target: T6, JAK3 (Homo sapiens, UniProt P52333); assay: In vitro enzymatic activity (ADP-Glo); type: biochemical; conditions: 4 hrs preincubation, 10 μM ATP
T6 construct: purchased Progema (US) [sic; Promega]
Experimental: as §2, §3, §4, §5, §6

BTK [3] = biological target: T2, BTK; assay: In vitro enzymatic activity (ADP-Glo); type: biochemical; parameters: purchased Progema (US) [sic; Promega]; conditions: 4 hrs preincubation, 10 μM ATP
Experimental: as §2, with “(US). […]” for “(US).”
as §6

T2 sequence (Q06187 whole entry): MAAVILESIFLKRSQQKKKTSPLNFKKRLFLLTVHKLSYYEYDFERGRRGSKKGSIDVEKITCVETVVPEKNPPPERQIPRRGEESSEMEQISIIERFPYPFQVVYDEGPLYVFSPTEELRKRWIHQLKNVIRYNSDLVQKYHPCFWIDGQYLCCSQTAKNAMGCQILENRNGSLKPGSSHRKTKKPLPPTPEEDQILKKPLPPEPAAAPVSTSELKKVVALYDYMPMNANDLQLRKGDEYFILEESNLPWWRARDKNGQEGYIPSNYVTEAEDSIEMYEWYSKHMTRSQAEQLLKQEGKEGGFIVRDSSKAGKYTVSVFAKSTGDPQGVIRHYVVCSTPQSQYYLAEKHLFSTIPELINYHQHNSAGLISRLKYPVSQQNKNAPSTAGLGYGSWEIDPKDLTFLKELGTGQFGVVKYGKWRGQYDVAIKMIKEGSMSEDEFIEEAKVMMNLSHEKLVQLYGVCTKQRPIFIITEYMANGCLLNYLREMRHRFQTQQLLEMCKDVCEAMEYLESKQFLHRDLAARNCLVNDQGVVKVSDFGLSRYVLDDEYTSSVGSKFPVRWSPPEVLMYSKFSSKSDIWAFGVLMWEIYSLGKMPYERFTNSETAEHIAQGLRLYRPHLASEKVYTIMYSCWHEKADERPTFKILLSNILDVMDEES
T5 sequence (P00533 699-1068): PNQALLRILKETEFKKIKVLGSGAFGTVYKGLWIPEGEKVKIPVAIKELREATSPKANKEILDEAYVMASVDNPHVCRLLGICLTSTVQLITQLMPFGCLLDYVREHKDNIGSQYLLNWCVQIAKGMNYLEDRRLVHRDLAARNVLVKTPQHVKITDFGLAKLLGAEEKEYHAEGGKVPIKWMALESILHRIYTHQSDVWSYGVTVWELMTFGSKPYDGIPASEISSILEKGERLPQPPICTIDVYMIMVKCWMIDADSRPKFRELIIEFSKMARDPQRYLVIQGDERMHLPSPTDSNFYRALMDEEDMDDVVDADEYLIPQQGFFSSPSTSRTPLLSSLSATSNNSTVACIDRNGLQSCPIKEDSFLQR
T6 sequence (P52333 whole entry): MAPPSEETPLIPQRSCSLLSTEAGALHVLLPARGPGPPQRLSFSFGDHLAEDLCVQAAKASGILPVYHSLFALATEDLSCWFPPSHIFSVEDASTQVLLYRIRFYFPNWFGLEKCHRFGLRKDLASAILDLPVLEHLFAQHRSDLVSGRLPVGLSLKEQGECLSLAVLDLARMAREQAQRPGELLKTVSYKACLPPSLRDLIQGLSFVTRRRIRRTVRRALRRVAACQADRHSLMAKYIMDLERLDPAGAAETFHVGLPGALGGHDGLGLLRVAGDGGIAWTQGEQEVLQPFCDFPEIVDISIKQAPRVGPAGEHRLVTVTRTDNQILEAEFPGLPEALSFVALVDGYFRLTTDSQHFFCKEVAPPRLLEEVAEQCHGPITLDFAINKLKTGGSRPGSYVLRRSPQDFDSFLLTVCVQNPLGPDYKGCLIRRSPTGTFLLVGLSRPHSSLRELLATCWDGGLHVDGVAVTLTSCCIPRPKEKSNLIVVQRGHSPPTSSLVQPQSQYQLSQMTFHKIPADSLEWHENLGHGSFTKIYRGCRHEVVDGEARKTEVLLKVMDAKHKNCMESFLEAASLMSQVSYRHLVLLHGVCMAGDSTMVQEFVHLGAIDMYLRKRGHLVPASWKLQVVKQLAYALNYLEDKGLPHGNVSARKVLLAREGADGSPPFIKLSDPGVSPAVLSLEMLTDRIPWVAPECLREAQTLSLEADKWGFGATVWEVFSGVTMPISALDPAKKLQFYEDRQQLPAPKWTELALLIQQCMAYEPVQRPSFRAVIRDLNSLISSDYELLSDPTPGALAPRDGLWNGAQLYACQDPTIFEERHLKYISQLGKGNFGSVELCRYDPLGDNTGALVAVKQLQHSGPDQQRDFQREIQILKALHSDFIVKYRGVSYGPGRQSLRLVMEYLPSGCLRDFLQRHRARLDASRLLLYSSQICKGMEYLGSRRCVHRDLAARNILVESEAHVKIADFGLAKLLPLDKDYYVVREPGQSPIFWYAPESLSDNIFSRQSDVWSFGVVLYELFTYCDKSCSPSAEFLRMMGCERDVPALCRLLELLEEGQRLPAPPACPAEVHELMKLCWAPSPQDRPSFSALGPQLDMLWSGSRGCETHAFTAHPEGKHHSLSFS
T4 sequence (P00533 699-1068 T790M/L858R): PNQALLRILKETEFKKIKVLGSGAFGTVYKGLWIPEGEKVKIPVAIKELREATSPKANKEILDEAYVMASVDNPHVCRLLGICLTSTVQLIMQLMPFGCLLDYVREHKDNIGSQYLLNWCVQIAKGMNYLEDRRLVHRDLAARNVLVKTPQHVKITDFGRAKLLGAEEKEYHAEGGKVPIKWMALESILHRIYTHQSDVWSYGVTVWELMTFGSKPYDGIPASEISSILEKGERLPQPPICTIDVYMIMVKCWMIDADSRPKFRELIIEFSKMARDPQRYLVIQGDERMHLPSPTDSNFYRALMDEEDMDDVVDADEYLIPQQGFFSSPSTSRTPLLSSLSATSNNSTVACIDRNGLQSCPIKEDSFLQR
T1 sequence (Q06187 whole entry): as the sequence (Q06187 whole entry) above
T3 sequence (P00533 699-1068 T790M): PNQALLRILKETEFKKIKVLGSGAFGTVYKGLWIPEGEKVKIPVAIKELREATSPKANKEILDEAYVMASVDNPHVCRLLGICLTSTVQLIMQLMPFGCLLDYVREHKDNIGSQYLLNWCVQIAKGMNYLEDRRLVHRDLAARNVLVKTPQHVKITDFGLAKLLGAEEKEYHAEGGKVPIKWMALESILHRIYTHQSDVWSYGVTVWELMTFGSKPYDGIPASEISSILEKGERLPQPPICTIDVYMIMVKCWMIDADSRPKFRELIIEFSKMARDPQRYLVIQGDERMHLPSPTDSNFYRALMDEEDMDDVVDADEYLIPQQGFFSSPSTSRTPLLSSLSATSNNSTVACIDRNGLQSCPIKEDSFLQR

| Structure (SMILES) | EC50 [1] | EC50 (tyrosine Y223 on Btk) | effect on phosphorylation of BTK in PBMCs (BTK [2]; 1 μM) | effect on phosphorylation of BTK in PBMCs (BTK [2]; 0.01, 0.1, 1 μM, some dose-dependency) | IC50 (EGFR (T790M)) | IC50 (EGFR (T790M/L858R)) | IC50 (EGFR (WT)) | IC50 (JAK3) | IC50 (BTK [3]) |
| --- | --- | --- | --- | --- | --- | --- | --- | --- | --- |
| C=CC(=O)Nc1cc(-n2c(=O)ccc3cnc4ccc(-n5cccn5)cc4c32)ccc1C [Compound 1, N-(2-methyl-5-(2-oxo-9-(1H-pyrazol-1-yl)benzo[H][1,6]naphthyridin-1(2H)-yl)phenyl)acrylamide] | 0.36 µM | 0.217 µM | comparative to that of the positive control | significantly inhibited | 5.5 µM | 1.34 µM | 2.45 µM | 0.169 µM | 0.0756 µM |
| CCC(=O)Nc1cc(-n2c(=O)ccc3cnc4ccc(-n5cccn5)cc4c32)ccc1C [Compound 19, N-(2-methyl-5-(2-oxo-9-(1H-pyrazol-1-yl)benzo[H][1,6]naphthyridin-1(2H)-yl)phenyl) propionamide] | – | – | no effect | – | – | – | – | – | – |
